Source: US20050250850A1, “Amino acid composition promoting collagen synthesis” (Ajinomoto Co., Inc., priority 2004, published 2005)

System: collagen synthesis in skin
Assay: Rate of collagen synthesis in rat skin (incorporation of stable isotope-labelled L-phenylalanine into collagen)
Assay type: in vivo, SD (IGS) male rats
Settings: rats fed protein-free food for one week, continuous administration into the jugular vein for approx. three and a half hours, neutral-salt-soluble newly synthesized collagen, t-test vs saline, * p<0.05, FIG. 1
Description: SD (IGS) male rats consisting of 4 to 6 individuals per group were fed protein-free food (0% casein) for one week to groups of, after which the rats were used in the following experiments.
The administration fluids were each administered continuously into the jugular vein for approximately three and a half hours. Stable isotope-labelled L-phenylalanine was used to determine the rate of collagen synthesis by measuring the labelled percentage of stable isotope-labelled L-phenylalanine that had been incorporated in collagen protein within a fixed period of time. Skin was used as the tissue, and fractions of newly synthesized collagen dissoluble in a neutral salt solution were used as the collagen.
The group administered with physiological saline was used as the control, and assay was conducted by t-test. The symbol * in the figure represents p<0.05. […] Rate of collagen synthesis=ΔEt/ΔEf/ΔT (1) • ΔEt: labelled percentage of the phenylalanine in collagen fractions per unit time • ΔEf: labelled percentage of the free phenylalanine in the skin tissue fluid per unit time • ΔT: unit time

Structure (SMILES): NC(=O)CC[C@H](N)C(=O)O [L-glutamine]
- rate of collagen synthesis in comparison with the group administered with physiological saline: enhancement from saline was not observed
